The results in this text go back to patent publication US8344000B2, “Compounds which have activity at M1 receptor and their uses in medicine” (Glaxo Group Limited, priority 2007, dated 2013).

This test deals with T1, human muscarinic M1 receptors (Homo sapiens, UniProt P11229).
T1 construct: expressed in transfected cells
T1 sequence (P11229 1-460): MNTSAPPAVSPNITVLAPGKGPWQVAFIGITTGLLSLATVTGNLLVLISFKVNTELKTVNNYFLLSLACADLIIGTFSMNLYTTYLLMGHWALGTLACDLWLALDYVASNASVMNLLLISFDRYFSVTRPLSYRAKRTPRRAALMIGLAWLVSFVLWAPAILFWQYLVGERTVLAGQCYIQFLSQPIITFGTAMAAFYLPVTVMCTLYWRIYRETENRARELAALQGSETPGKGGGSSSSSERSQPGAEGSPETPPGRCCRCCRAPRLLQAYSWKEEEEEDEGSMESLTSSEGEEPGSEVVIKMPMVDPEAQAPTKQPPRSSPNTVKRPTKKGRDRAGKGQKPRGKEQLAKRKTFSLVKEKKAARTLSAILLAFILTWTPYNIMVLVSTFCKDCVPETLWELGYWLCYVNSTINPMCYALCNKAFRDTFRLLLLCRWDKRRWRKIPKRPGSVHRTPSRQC
As to the kind of experiment: FLIPR experiments on M1 receptors (calcium response, CHO-M1 cells). It is filed as cell-based. The settings on record: tested for activity; assay and threshold not specified at the place. How it is done:
FLIPR Experiments on M1 Receptors to Determine Agonist/Antagonist Potency
Compounds of the invention were characterized in a functional assay to determine their ability to activate the intracellular calcium pathway in CHO cells with stable expression of human muscarinic M1 receptors using FLIPR (Fluorometric Imaging Plate Reader) technology. Briefly, CHO-M1 cells were plated (15,000/well) and allowed to grow overnight at 37 degrees. Media were removed and 30 μL loading buffer (HBSS with 2.5 mM probenicid, 2 μM Fluo-4, 500 μM Brilliant Black, pH 7.4) was added. After incubation at 37 degrees for 90 minutes, 10 μL of the assay buffer (HBSS with 2.5 mM probenecid, pH 7.4) containing test compounds was added to each well on the FLIPR instrument. Calcium response was monitored to determine agonism. […] Calcium response was then monitored again to determine compound's antagonism to acetylcholine. […] Results were imported into ActivityBase data analysis suite (ID Business Solution Inc., Parsippany, N.J.) where the curves were analysed by non-linear curve fitting and the resulting pEC50/fpKi were calculated. The maximum asymptotes of agonist compounds were calculated as percentage of maximum FLIPR response induced by carbamoylcholine chloride added as control on the same compound plates.

Take `Cl.O=C1Cc2ccccc2N1C1CCN(C2CCOCC2)CC1` [1-[1-(Tetrahydro-2H-pyran-4-yl)-4-piperidinyl]-1,3-dihydro-2H-indol-2-one hydrochloride]: the activity entry is given as “below the threshold value”.
